From patent US20090197899A1, “3-(Dihydro-1H-pyrazolo[4,3-d]pyrimidin-5-yl)-4-propoxybenzenesulfonamide Derivatives and Methods of Use” (Concert Pharmaceuticals Inc., priority 2006, published 2009)

Assay: Metabolic stability of test compounds using human liver microsomes
Type: in vitro ADME
Conditions: for differentiation of t1/2 (longer) as compared to udenafil: human liver microsomes, assay conditions 0.5 mg/mL, 1 µM test compd; for half-life at 1 µM: pooled human liver microsomes, in vitro t1/2, 0.5 mg/mL human liver microsomes, 1 μM test compound, 2 mM NADPH, pH 7.4, 37° C., experiment run an additional three times, read-out: Avg t1/2 (min) ± SD
Method: Determination of Metabolic Stability of Test Compounds using Human Liver Microsomes. The metabolic stability of compounds of the invention was tested using pooled liver microsomal incubations. Full scan LC-MS analysis was then performed to detect major metabolites. Samples of the test compounds, exposed to pooled human liver microsomes, were analyzed using HPLC-MS (or MS/MS) detection. For determining metabolic stability, multiple reaction monitoring (MRM) was used to measure the disappearance of the test compounds. For metabolite detection, Q1 full scans were used as survey scans to detect the major metabolites.
Experimental Procedures. Human liver microsomes (“HLM”; 20 mg/mL) were obtained from Xenotech, LLC (Lenexa, Kans.). β-nicotinamide adenine dinucleotide phosphate, reduced form (NADPH), magnesium chloride (MgCl2), and dimethyl sulfoxide (DMSO) were purchased from Sigma-Aldrich.
Stock solutions (7.5 mM) of Compounds 100, 103, 108 and 210 and udenafil were prepared in DMSO. The 7.5 mM stock solutions were diluted to 50 μM in acetonitrile (ACN). The 20 mg/mL human liver microsomes were diluted to 0.625 mg/mL in 0.1 M potassium phosphate buffer, pH 7.4, containing 3 mM MgCl2. The diluted microsomes (375 μL) were added to wells of a 96-well deep-well polypropylene plate in triplicate. Ten μL of the 50 μM test compound solution was added to the microsomes and the mixture was pre-warmed for 10 minutes. Reactions were initiated by addition of 125 μL of pre-warmed NADPH solution (8 mM NADPH in 0.1M potassium phosphate buffer, pH 7.4, containing 3 mM MgCl2). […] The reaction mixtures were incubated at 37° C., and 50 μL aliquots were removed at 0, 5, 10, 20, and 30 minutes and added to shallow-well 96-well plates which contained […] of ice-cold ACN with internal standard to stop the reactions. The plates were stored at 4° C. for 20 minutes after which […] of water was added to the wells of the plate before centrifugation to pellet precipitated proteins. Supernatants were transferred to another 96-well plate and analyzed for amounts of parent remaining by LC-MS/MS using an Applied Bio-systems API 4000 mass spectrometer.
The in vitro t1/2s for test compounds were calculated from the slopes of the linear regression of % parent remaining (ln) vs incubation time relationship using the following formula:
in vitro t1/2=0.693/k, where k=−[slope of linear regression of % parent remaining(ln) vs incubation time]. Data analysis was performed using Microsoft Excel Software.

| differentiation of t1/2 (longer) as compared to udenafil [%] | half-life at 1 µM [min] | SMILES |
| --- | --- | --- |
|  | 36.2 ± 1.5 | [2H]C([2H])([2H])n1nc(CCC)c2nc(-c3cc(S(=O)(=O)NCCC4CCCN4C)ccc3OCCC)[nH]c(=O)c21 (stereo not shown) [Compound 108] |
|  | 33.6 ± 2.2 | CCCOc1ccc(S(=O)(=O)NCCC2CCCN2C)cc1-c1nc2c(CCC)nn(C)c2c(=O)[nH]1 (stereo not shown) [Udenafil, 3-(1-methyl-7-oxo-3-propyl-6,7-dihydro-1H-pyrazolo[4,3-d]pyrimidin-5-yl)-N-[2-(1-methylpyrrolidin-2-yl)ethyl]-4-propoxybenzenesulfonamide, reference compound] |

The next lines start with the compound.

| SMILES | differentiation of t1/2 (longer) as compared to udenafil [%] | half-life at 1 µM [min] |
| --- | --- | --- |
| [2H]C([2H])(CC1CCCN1C)NS(=O)(=O)c1ccc(OCCC)c(-c2nc3c(CCC)nn(C([2H])([2H])[2H])c3c(=O)[nH]2)c1 (stereo not shown) [Compound 100] | ~20 | 41.3 ± 1.5 |
| [2H]C([2H])(CC1CCCN1C)NS(=O)(=O)c1ccc(OCCC)c(-c2nc3c(CCC)nn(C)c3c(=O)[nH]2)c1 (stereo not shown) [Compound 103] |  | 37.2 ± 1.8 |
| [2H]C([2H])(CC1CCCN1C)NS(=O)(=O)c1ccc(OC([2H])([2H])C([2H])([2H])C([2H])([2H])[2H])c(-c2nc3c(CC([2H])([2H])C([2H])([2H])[2H])nn(C([2H])([2H])[2H])c3c(=O)[nH]2)c1 (stereo not shown) [Compound 210, 3-(1-(Methyl-d3)-7-oxo-3-(2,2,3,3,3-d5-propyl)-6,7-dihydro-1H-pyrazolo[4,3-d]pyrimidin-5-yl)-N-(2-(1-methylpyrrolidin-2-yl)-1,1-d2-ethyl)-4-(propoxy-d7)-benzenesulfonamide] | ~20 | 42.4 ± 3.74 |
